# Assay results: US20250026778A1 (TIUMBIO CO., LTD., priority 2021, published 2025)
# Molecular target: T1, his-galectin-3 (Homo sapiens, UniProt P17931)
# T1 construct: purchased Abcam
# Experiment: TR-FRET assay (in vitro galectin-3 binding inhibitory activity test)
# Settings: Table 1; compound at 20 μM; 60 nM his-galectin-3, 15 nM biotin-ASF; read-out: % Inhibitory activity (at 20 μM)
# Method: TR-FRET Assay (In Vitro Galectin-3 Binding Inhibitory Activity Test)
# TR-FRET assay was performed in ½ Area Plate-96 (PerkinElmer). Final concentrations of components in the assay were 60 nM his-galectin-3 (Abcam), 15 nM biotin-ASF (Axxora), 2 nM Mab anti-6×His Tb (Cisbio) and 20 nM SA-d2 (Cisbio). The reaction was performed in a buffer containing 25 mM HEPES, 100 mM NaCl, 0.005% Tween 20 and 0.05% BSA. 20 μL his-galectin-3 and 1 μL compound were mixed first, and then 20 μL biotin-ASF, 5 μL anti-His Tb and 5 μL SA-d2 were added in order. After incubation for at least 3.5 hours at RT, TR-FRET signals were measured at 615/665 nm […] wavelengths using a VICTOR Nivo (PerkinElmer). The positive control used DMSO instead of the compound, and the negative control excluded ASF-biotin. N-acetyl-D-lactosamine (LacNAc), an endogenous ligand unit of galectin-3, was evaluated together as a control substance to compare galectin-3 binding inhibitory activity.
# T1 sequence (P17931 whole entry): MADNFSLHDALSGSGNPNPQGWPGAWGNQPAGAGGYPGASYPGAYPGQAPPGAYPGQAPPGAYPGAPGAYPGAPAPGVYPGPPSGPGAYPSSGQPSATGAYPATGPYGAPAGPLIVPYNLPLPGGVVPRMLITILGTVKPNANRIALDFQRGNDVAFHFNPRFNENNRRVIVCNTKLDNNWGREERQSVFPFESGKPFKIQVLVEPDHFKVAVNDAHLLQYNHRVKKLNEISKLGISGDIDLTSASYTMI
row,SMILES,inhibition at 20 µM [%]
1,"OC[C@H]1O[C@@]2(CCCO2)[C@H](O)[C@@H](n2cc(-c3cc(F)c(F)c(F)c3)nn2)[C@H]1O [Compound A12, (5S,7R,8R,9S,10R)-7-(hydroxymethyl)-9-(4-(3,4,5-trifluorophenyl)-1H-1,2,3-triazol-1-yl)-1,6-dioxaspiro[4.5]decane-8,10-diol]",25 to 50
2,"OC[C@H]1O[C@@]2(CCCO2)[C@H](OCc2ccccc2)[C@@H](n2cc(-c3cc(F)c(F)c(F)c3)nn2)[C@H]1O [Compound A13, (5S,7R,8R,9S,10R)-10-(benzyloxy)-7-(hydroxymethyl)-9-(4-(3,4,5-trifluorophenyl)-1H-1,2,3-triazol-1-yl)-1,6-dioxaspiro[4.5]decan-8-ol]",25 to 50
3,"OC[C@H]1O[C@@]2(CCCO2)[C@H](OCc2cccnc2)[C@@H](n2cc(-c3cc(F)c(F)c(F)c3)nn2)[C@H]1O [Compound A16, (5S,7R,8R,9S,10R)-7-(hydroxymethyl)-10-(pyridin-3-ylmethoxy)-9-(4-(3,4,5-trifluorophenyl)-1H-1,2,3-triazol-1-yl)-1,6-dioxaspiro[4.5]decan-8-ol acetate]",25 to 50
4,"OC[C@H]1O[C@@]2(CCCO2)[C@H](OCc2ccccn2)[C@@H](n2cc(-c3cc(F)c(F)c(F)c3)nn2)[C@H]1O [Compound A17, (5S,7R,8R,9S,10R)-7-(hydroxymethyl)-10-(pyridin-2-ylmethoxy)-9-(4-(3,4,5-trifluorophenyl)-1H-1,2,3-triazol-1-yl)-1,6-dioxaspiro[4.5]decan-8-ol]",25 to 50
5,"OC[C@H]1O[C@@]2(CCCO2)[C@H](OCc2ccncc2)[C@@H](n2cc(-c3cc(F)c(F)c(F)c3)nn2)[C@H]1O [Compound A18, (5S,7R,8R,9S,10R)-7-(hydroxymethyl)-10-(pyridin-4-ylmethoxy)-9-(4-(3,4,5-trifluorophenyl)-1H-1,2,3-triazol-1-yl)-1,6-dioxaspiro[4.5]decan-8-ol acetate]",25 to 50
6,"OC[C@H]1O[C@@]2(CCCO2)[C@H](OCc2ccc(C(F)(F)F)o2)[C@@H](n2cc(-c3cc(F)c(F)c(F)c3)nn2)[C@H]1O [Compound A19, (5S,7R,8R,9S,10R)-7-(hydroxymethyl)-10-((5-(trifluoromethyl)furan-2-yl)methoxy)-9-(4-(3,4,5-trifluorophenyl)-1H-1,2,3-triazol-1-yl)-1,6-dioxaspiro[4.5]decan-8-ol]",25 to 50
7,"O=C(CO[C@@H]1[C@@H](n2cc(-c3cc(F)c(F)c(F)c3)nn2)[C@@H](O)[C@@H](CO)O[C@@]12CCCO2)c1ccccc1 [Compound A20, 2-(((5S,7R,8R,9S,10R)-8-hydroxy-7-(hydroxymethyl)-9-(4-(3,4,5-trifluorophenyl)-1H-1,2,3-triazol-1-yl)-1,6-dioxaspiro[4.5]decan-10-yl)oxy)-1-phenylethanone]",25 to 50
8,"O=C(O)CO[C@@H]1[C@@H](n2cc(-c3cc(F)c(F)c(F)c3)nn2)[C@@H](O)[C@@H](CO)O[C@@]12CCCO2 [Compound A21, 2-(((5S,7R,8R,9S,10R)-8-hydroxy-7-(hydroxymethyl)-9-(4-(3,4,5-trifluorophenyl)-1H-1,2,3-triazol-1-yl)-1,6-dioxaspiro[4.5]decan-10-yl)oxy)acetic acid]",50 to 75
9,"O=C(CO[C@@H]1[C@@H](n2cc(-c3cc(F)c(F)c(F)c3)nn2)[C@@H](O)[C@@H](CO)O[C@@]12CCCO2)N1CCC(O)CC1 [Compound A22, 2-(((5S,7R,8R,9S,10R)-8-hydroxy-7-(hydroxymethyl)-9-(4-(3,4,5-trifluorophenyl)-1H-1,2,3-triazol-1-yl)-1,6-dioxaspiro[4.5]decan-10-yl)oxy)-1-(4-hydroxypiperidin1-yl)ethanone]",25 to 50
10,"O=C(CO[C@@H]1[C@@H](n2cc(-c3cc(F)c(F)c(F)c3)nn2)[C@@H](O)[C@@H](CO)O[C@@]12CCCO2)Nc1ccccc1 [Compound A23, 2-(((5S,7R,8R,9S,10R)-8-hydroxy-7-(hydroxymethyl)-9-(4-(3,4,5-trifluorophenyl)-1H-1,2,3-triazol-1-yl)-1,6-dioxaspiro[4.5]decan-10-yl)oxy)-N-phenylacetamide]",25 to 50

# Same assay, conditions: Table 3, found values; compound at 20 μM; 60 nM his-galectin-3, 15 nM biotin-ASF; read-out: % Inhibitory activity (at 20 μM)
row,SMILES,inhibition at 20 µM [%]
1,"O=C(CO[C@@H]1[C@@H](n2cc(-c3cc(F)c(F)c(F)c3)nn2)[C@@H](O)[C@@H](CO)O[C@@]12CCCO2)N1CCC(O)CC1 [Compound A22, 2-(((5S,7R,8R,9S,10R)-8-hydroxy-7-(hydroxymethyl)-9-(4-(3,4,5-trifluorophenyl)-1H-1,2,3-triazol-1-yl)-1,6-dioxaspiro[4.5]decan-10-yl)oxy)-1-(4-hydroxypiperidin1-yl)ethanone]",28.1
